In ChEMBL document CHEMBL1149722, “Alkaloids from Psychotria oleoides with activity on growth hormone release” (J Nat Prod, 1992):
The source made the active and inactive calls. No cut-off for these calls is given here.

Species on record: Rattus norvegicus
Assay: Antagonist activity at SRIF in rat pituitary culture assessed as effect on growth hormone secretion
Type: functional

SMILES: CN1CC[C@]2(c3cccc4c3C[C@H]3N(C)CC[C@@]45[C@@H]4Nc6c([C@]78CCN(C)[C@H]7Nc7ccccc78)cccc6[C@]35CCN4C)c3ccccc3N[C@H]12
- Activity: Active
